Data on one molecule can be found in patent publication US11917959B2, “Multi-ear system to enhance monocot plant yield” (Monsanto Technology LLC, priority 2015, dated 2024).

SMILES strings stand for the structures.

This experiment has as its system diploid maize plant. Description: Multibud induction in vitro, embryo axis method (Example 8). It is filed as in vivo. The procedure:
Seeds of a diploid maize plant were surface sterilized comprising immersion using standard methods of the art and then germinated in vitro in growth media. One of the resulting seedlings was dissected from its seed two days after germination (embryo axis method). The dissected axis was then subjected to a multibud induction treatment comprising transfer to fresh multibud induction media containing cytokinin in the form of 10 mg/L BAP. After seven days in the multibud bud induction media, the treated seedlings were transferred back to a hormone-free regeneration media. […] These multibuds were dissected from the mother plant and transferred to rooting media comprising IBA and IAA. After approximately one week, the multibud-derived plants were transplanted into 10 inch pots and allowed to grow in a greenhouse until it was clear that each autonomously-growing multibud-derived shoot had formed ears and tassels that nicked. Each ear was then pollinated from the tassel growing in the same pot and then all plants were allowed to grow in greenhouse conditions until seed set.

`c1ccc(CNc2ncnc3nc[nH]c23)cc1` [BAP, 6-Benzylaminopurine, N-(Phenylmethyl)-7H-pruin-6-amine]: the “seed borne by ears of multibud-derived plants” value (10 mg/L BAP) is recorded as “dozens of seed each”. Moreover, the multibud formation result (10 mg/L BAP for seven days, after approximately twenty days) is “induced multibuds could be seen growing from the nodal regions of the stem”.
